Where a name gives a salt, the structure may show the parent alone.
Assays:
[1] = biological target: T1, human Slack (Homo sapiens, UniProt Q5JUK3); test: FluxOR potassium ion channel assay in HEK-Slack cells; format: cell-based; conditions: for EC50: HEK-Slack cells, Na+-free assay buffer, mean (95% confidence interval)
T1 construct: host or cells: HEK293
T1 sequence (Q5JUK3 1-1230): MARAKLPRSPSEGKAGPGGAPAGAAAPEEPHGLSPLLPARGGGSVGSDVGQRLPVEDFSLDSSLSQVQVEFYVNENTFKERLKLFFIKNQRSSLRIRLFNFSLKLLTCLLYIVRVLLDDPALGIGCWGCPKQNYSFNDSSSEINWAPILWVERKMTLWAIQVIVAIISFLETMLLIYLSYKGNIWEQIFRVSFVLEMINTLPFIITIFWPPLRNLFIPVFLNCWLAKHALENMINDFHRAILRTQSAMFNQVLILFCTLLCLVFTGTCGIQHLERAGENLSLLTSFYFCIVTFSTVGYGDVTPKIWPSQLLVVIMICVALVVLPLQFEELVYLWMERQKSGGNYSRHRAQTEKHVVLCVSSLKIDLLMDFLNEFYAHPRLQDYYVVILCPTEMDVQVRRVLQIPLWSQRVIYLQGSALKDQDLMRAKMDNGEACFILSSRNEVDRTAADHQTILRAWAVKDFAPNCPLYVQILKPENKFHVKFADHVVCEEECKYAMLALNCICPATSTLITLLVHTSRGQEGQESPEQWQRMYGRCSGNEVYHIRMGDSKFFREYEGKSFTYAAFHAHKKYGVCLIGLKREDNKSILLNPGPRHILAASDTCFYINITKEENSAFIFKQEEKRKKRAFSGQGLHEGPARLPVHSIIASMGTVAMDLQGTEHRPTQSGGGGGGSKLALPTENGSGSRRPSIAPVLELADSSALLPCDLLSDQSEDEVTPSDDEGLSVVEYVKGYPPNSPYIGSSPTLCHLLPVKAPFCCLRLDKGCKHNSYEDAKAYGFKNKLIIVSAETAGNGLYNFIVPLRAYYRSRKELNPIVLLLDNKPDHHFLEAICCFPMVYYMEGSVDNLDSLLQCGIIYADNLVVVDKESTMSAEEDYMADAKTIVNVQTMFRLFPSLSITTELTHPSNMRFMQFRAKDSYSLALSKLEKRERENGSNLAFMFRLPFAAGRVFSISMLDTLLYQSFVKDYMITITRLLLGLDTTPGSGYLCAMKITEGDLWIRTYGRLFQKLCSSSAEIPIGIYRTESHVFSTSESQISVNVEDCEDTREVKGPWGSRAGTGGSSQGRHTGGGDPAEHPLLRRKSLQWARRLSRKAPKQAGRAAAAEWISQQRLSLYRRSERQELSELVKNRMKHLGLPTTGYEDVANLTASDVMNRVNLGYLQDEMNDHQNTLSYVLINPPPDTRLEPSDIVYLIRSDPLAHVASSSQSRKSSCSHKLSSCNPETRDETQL
Method: The functional activity of this series of compounds against human Slack was determined using a cell‐based FluxOR potassium ion channel assay in cultured HEK293 cells stably expressing human Slack (herein referred to as HEK‐Slack cells) and a Na^+‐free assay buffer to prevent compound‐independent Slack activation by monovalent cations.^[ [14], [24] ^] […] Of the 114 newly synthesized compounds, 31 acted as Slack activators to varying extents. Accordingly, we deemed eight of these as the most interesting candidates.
To determine the Slack‐activating efficacy and potency of the novel compounds, a commercial FluxOR potassium ion channel assay (#10 017; Invitrogen) was used. HEK‐Slack cells were plated at a density of 50 000 cells per well on a poly‐D‐lysine coated (75 µg mL^−1, Sigma–Aldrich) 96‐well, black‐walled microplate with clear bottom (#655 090; Greiner Bio‐One) in DMEM (100 µL per well) containing 10% FBS and 1% penicillin/streptomycin 24 h prior to assaying. In the initial experiments shown in Figure S3A–F (Supporting Information), HEK‐Slack cells were plated at a density of 100 000 cells/well 48 h prior to the assay. On the day of the experiment, the cells were loaded with FluxOR dye according to the manufacturer's protocol. A Na^+‐free assay buffer, adjusted to pH 7.4 with KOH, containing 140 mM choline chloride, 5 mM KCl, 2 mM CaCl2, 2 mM MgSO4, 10 mM HEPES, and 5.55 mM glucose was used. To reduce background fluorescence, all assay components were complemented with a 10% BackDrop Background Suppressor (#B10511; Invitrogen).
All compounds were prepared as a 333 mM stock in DMSO and diluted on the experimental day to a final concentration of 100, 50, 25, 12.5, 6.25, 3.125, or 1.5625 µM in an assay buffer with DMSO adjusted to 0.03%. Before treatment, the cells were washed, and the medium was exchanged for the assay buffer. In a total volume of 90 µL per well, the cells were then incubated for 30 min at 37 °C with compounds at the indicated concentrations, or 0.03% DMSO alone as the vehicle. […] Fluorescence was measured using an Infinite M200 microplate reader (Tecan) with excitation at 485 nm (9 nm bandwidth) and emission at 525 nm (20 nm bandwidth) in the bottom read mode. First, the baseline fluorescence of the individual wells was established. Thereafter cells were stimulated with 20 µL Tl2SO4 (5 mM) solution injected at 100 µL s^−1, and fluorescence was further recorded for 100 s. Assays were run in triplicate. For all time points, the ratio of fluorescence to baseline fluorescence was calculated first for individual wells, and the average was then used.
Dose‐response curves comprising six concentrations were obtained in triplets using fluorescence/fluorescenceBaseline ratios at the 100th s.

[2] = Metabolic stability assay in rat liver microsomes; format: in vitro ADME; conditions: 10 µM, 15, 30 and 60 min
Method: We next assessed the metabolic stability of these compounds (10 µM) in rat liver microsomes (Figure 2A). […] Therefore, we assumed that the occupation of metabolically labile sites at the aromatic core and the reduction in electron density at the oxidizable nitrogen atom of the piperazine ring might increase metabolic stability. Indeed, both the introduction of fluorine at R^2 and the introduction of an electron‐withdrawing carboxylic acid linker at R^3 improved metabolic stability. The substitution of chlorine with a trifluoromethyl group at R^1 was also beneficial. In contrast, homopiperazine and hydroxy linkers were metabolically labile.
The solubilized test compound (5 µL, final concentration 10 µM) was preincubated at 37 °C in 432 µL phosphate buffer (0.1 M, pH 7.4) together with 50 µL NADPH regenerating system (30 mM glucose‐6‐phosphate, 4 U mL^−1 glucose 6‐phosphate dehydrogenase, 10 mM NADP, and 30 mM MgCl2). After 5 min, the reaction started upon the addition of 13 µL of microsome mix from the liver of Sprague‐Dawley rats (Invitrogen; 20 mg protein per mL in 0.1 M phosphate buffer) in a shaking water bath at 37 °C. The reaction was stopped by adding 500 µL ice‐cold methanol at 0, 15, 30, and 60 min. The samples were centrifuged at 5000 × g for 5 min at 4 °C and the test compound was quantified from the supernatants by HPLC; the composition of the mobile phase was adapted to the test compound in a range of MeOH 40−90% and water (0.1% formic acid) 10−60%. Flow rate: 1 mL min^−1; stationary phase: Purospher STAR, RP18, 5 µm, 125 × 4; precolumn: Purospher STAR, RP18, 5 µm, 4 × 4; detection wavelength: 254 and 280 nm; injection volume: 50 µL. Control samples were used to evaluate the stability of the test compounds in the reaction mixture. The first control was without NADPH, which is needed for the enzymatic activity of the microsomes, the second control was with inactivated microsomes (incubated for 20 min at 90 °C), and the third control was without the test compound (to determine the baseline). The amounts of test compounds were quantified using an external calibration curve.

[3] = biological target: T2, human D2S receptor (Homo sapiens, UniProt P14416); test: [3H]-spiperone competition binding assay, D2; conditions: mean [CI 95%]
T2 construct: expressed in transfected cells; host or cells: CHO
T2 sequence (P14416 1-414 isoform P14416-2): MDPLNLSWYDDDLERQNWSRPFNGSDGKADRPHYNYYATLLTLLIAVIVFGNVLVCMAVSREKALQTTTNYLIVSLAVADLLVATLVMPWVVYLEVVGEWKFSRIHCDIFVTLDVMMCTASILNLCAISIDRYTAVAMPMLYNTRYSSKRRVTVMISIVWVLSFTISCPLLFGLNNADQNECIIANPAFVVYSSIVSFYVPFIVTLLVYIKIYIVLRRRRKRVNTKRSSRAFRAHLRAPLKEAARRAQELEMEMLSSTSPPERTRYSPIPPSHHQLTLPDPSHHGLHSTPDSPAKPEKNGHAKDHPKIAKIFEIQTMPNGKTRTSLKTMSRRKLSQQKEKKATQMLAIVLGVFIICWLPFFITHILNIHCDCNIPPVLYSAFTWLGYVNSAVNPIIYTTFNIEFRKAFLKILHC
Method: (§1) CHO cells stably expressing human dopamine D2short (D2R) and D3 receptor (D3R) were washed and harvested using PBS. […] The cell membrane homogenate was centrifuged (20 000 × g, 20 min, 4 °C), and the resulting cell pellet was resuspended in the binding buffer. Crude membrane extracts were kept at −80 °C until use. Before starting the experiments, cell membranes were thawed, homogenized by sonication (3 × 10 s), and stored in an ice‐cold binding buffer. […] Assays were performed at least in triplicate with appropriate concentrations ranging from 0.01 nM to 100 µM of the test compound. Non‐specific binding was determined using 10 µM haloperidol. By filtering through GF/B filters pretreated with 0.3% (m/v) polyethyleneimine, the bound radioligand was separated from free radioligand using a cell harvester. Radioactivity was measured using liquid scintillation counting. Data were evaluated using the GraphPad Prism 9 software (San Diego, CA, USA) with a nonlinear regression fit.

[4] = biological target: T3, human D3 receptor (Homo sapiens, UniProt P35462); test: [3H]-spiperone competition binding assay, D3; conditions: mean [CI 95%]
T3 construct: expressed in transfected cells; host or cells: CHO
T3 sequence (P35462 whole entry): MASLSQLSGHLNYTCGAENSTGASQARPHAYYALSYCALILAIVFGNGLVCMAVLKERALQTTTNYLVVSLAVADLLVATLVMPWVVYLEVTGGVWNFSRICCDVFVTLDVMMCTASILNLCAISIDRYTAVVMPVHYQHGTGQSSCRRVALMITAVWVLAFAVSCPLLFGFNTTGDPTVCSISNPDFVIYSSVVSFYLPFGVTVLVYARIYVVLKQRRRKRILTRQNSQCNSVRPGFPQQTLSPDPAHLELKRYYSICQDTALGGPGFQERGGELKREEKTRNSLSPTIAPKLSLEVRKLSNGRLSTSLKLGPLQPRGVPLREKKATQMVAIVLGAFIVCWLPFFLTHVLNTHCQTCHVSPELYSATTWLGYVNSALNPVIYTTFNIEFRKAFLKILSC
Method: as §1

[5] = system: HEK293 cells; test: Live-cell high-content cytotoxicity multiplex assay; format: cell-based; conditions: 100 µM, 6 h
Method: To explore whether the compounds affected general cell functions, we performed a live‐cell high‐content assay that allowed for the simultaneous investigation of cellular viability, compound precipitation, and maintenance of membrane integrity and mitochondrial mass.^[ [25] ^]
To assess cell viability, a live cell high‐content screen was performed in HEK293T cells as described previously.^[ [25] ^] In brief, HEK293T cells (ATCC CRL‐1573) were cultured in DMEM plus L‐glutamine (high glucose) supplemented by 10% FBS (Gibco) and penicillin/streptomycin (Gibco). Cells were seeded at a density of 1500 cells/well in 384 well plates in culture medium (cell culture microplate, PS, f‐bottom, µClear, 781 091; Greiner). Cells were stained simultaneously with 60 nM Hoechst33342 (Thermo Scientific), 75 nM Mitotracker red (Invitrogen), 0.3 µL per well annexin V Alexa Fluor 680 conjugate (Invitrogen), and 25 nL per well BioTracker 488 green microtubule cytoskeleton dye (EMD Millipore). The fluorescence and cellular shape were measured after 6 h of compound exposure using a CQ1 high‐content confocal microscope (Yokogawa). […] Images were analyzed using the CellPathfinder software (Yokogawa). Cells were detected and gated in different cell populations as described previously^[ [47] ^] using a machine learning‐based algorithm. Briefly, compound precipitation was detected as Hoechst high‐intensity objects. […]

[6] = system: mice; test: Pulse oximetry in conscious, freely moving mice; conditions: 10 mg kg−1 i.p., observation period of 30 min
Method: To measure cardiovascular function, a pulse oximeter (MouseOX Plus, Starr Life Sciences Corp.) was used in conscious, freely moving mice. After three consecutive days of habituating the mice to the collar clip for at least 30 min, baseline measurements were performed. […] All the datasets were sampled at 1 Hz, error‐corrected according to the manufacturer's instructions, and averaged over 300 s for each time point.

Q: What does the source list for `O=C(O)COCCN1CCN(C2=Nc3ccccc3Oc3ccc(C(F)(F)F)cc32)CC1` [Compound 7]?
A: Emax [1]: 177%; EC50 [1]: 62500 nM; metabolic stability [2]: highest metabolic stabilities; Ki [3]: 27.4 nM; Ki [4]: 40.7 nM

Q: Which Emax [1] does the source give for `CN1CCN(C2=Nc3ccccc3Oc3ccc(C(F)(F)F)cc32)CC1` [Compound 1] here?
A: Its Emax is 114%.

Q: And the EC50 [1]?
A: The EC50 was 6300 nM.

Q: And the compound precipitation [5]?
A: Its compound precipitation is “compound precipitation was only detected”.

Q: And the Ki [3]?
A: The Ki was 3.6 nM.

Q: What about the Ki [4] of the same compound?
A: The Ki was 12.2 nM.

Q: Which Emax [1] does the source give for `CN1CCN(C2=Nc3cc(F)ccc3Oc3ccc(C(F)(F)F)cc32)CC1` [Compound 3] here?
A: Its Emax is 199%.

Q: And the EC50 [1]?
A: Its EC50 is 41500 nM.

Q: And the Ki [3]?
A: The Ki was 2.89 nM.

Q: What about the Ki [4] of the same compound?
A: The Ki was 22.6 nM.

Q: With `CN1CCCN(C2=Nc3ccccc3Oc3ccc(C(F)(F)F)cc32)CC1` [Compound 2] as the compound, how does the Emax [1] read?
A: Its Emax is 63.1%.

Q: What about the EC50 [1] of the same compound?
A: Its EC50 is 3200 nM.

Q: And the Ki [3]?
A: Its Ki is 82.8 nM.

Q: What about the Ki [4] of the same compound?
A: The Ki was 62.4 nM.

Q: Which results are given for `OCCN1CCN(C2=Nc3ccccc3Oc3ccc(Cl)cc32)CC1` [Compound 4]?
A: Emax [1]: 223%; EC50 [1]: 26000 nM; Ki [3]: 50 nM; Ki [4]: 176 nM

Q: Which Emax [1] does the source give for `OCCOCCN1CCN(C2=Nc3ccccc3Sc3ccc(Cl)cc32)CC1` [Compound 5] here?
A: Its Emax is 87.4%.

Q: What about the EC50 [1] of the same compound?
A: Its EC50 is 30000 nM.

Q: What about the Ki [3] of the same compound?
A: The Ki was 44.9 nM.

Q: And the Ki [4]?
A: Its Ki is 63.4 nM.

Q: For `CN1CC[C@]23c4c5ccc(O)c4O[C@H]2[C@@H](O)C=C[C@H]3[C@H]1C5` [morphine, morphine sulfate pentahydrate, reference compound], which breath rate [6] is on record?
A: The breath rate was “reduced”.

Q: And the heart rate [6]?
A: Its heart rate is “reduced”.

Q: With `O=C(O)COCCN1CCCN(C2=Nc3ccccc3Oc3ccc(C(F)(F)F)cc32)CC1` [Compound 8] as the compound, how does the Emax [1] read?
A: The Emax was 186%.

Q: What about the EC50 [1] of the same compound?
A: The EC50 was 50900 nM.

Q: What about the Ki [3] of the same compound?
A: The Ki was 134 nM.

Q: And the Ki [4]?
A: The Ki was 421 nM.
